Experimental data reported in PubChem BioAssay AID270 (DTP/NCI, 2004).
“And” between values parts separate entries of the source, which are not always exact repeats. Equal values may be shown once. Records with an inconclusive call do not appear.

Tested on: BDF1 mice, s.c. Lewis lung carcinoma, T/C %
Test: NCI In Vivo Anticancer Drug Screen. Data for tumor model Lewis Lung Carcinoma (subcutaneous) in B6D2F1 (BDF1) mice
How it was run: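 Readout: survival or tumor size, expressed as treated (T) over vehicle control (C). Transplantable tumor implanted in mice; compound given to the treated group.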

[1] = endpoint: median survival time, dose: 1.5 mg/kg/injection, schedule: Q01DX009 (ip), vehicle: Klucel (hydroxypropylcellulose) (HPC), higher = longer survival
[2] = endpoint: median survival time, dose: 3.0 mg/kg/injection, schedule: Q01DX009 (ip), vehicle: Klucel (hydroxypropylcellulose) (HPC), higher = longer survival

`CC(=O)[C@H]1CC[C@H]2[C@@H]3CCC4=CC(=O)CC[C@]4(C)[C@H]3CC[C@]12C` was tested, and the T/C (endpoint: median survival time, dose: 12.5 mg/kg/injection, schedule: Q02DX009 (ip), vehicle: Klucel (hydroxypropylcellulose) (HPC), higher = longer survival) was 99 % of control, the T/C (endpoint: median survival time, dose: 25.0 mg/kg/injection, schedule: Q02DX009 (ip), vehicle: Klucel (hydroxypropylcellulose) (HPC), higher = longer survival) was 107 % of control and the T/C (endpoint: median survival time, dose: 50.0 mg/kg/injection, schedule: Q02DX009 (ip), vehicle: Klucel (hydroxypropylcellulose) (HPC), higher = longer survival) was 90 % of control. For the same molecule, the T/C (endpoint: median survival time, dose: 100.0 mg/kg/injection, schedule: Q02DX009 (ip), vehicle: Klucel (hydroxypropylcellulose) (HPC), higher = longer survival) was 95 % of control, the T/C (endpoint: median survival time, dose: 200.0 mg/kg/injection, schedule: Q02DX009 (ip), vehicle: Klucel (hydroxypropylcellulose) (HPC), higher = longer survival) was 101 % of control and the T/C (endpoint: median survival time, dose: 400.0 mg/kg/injection, schedule: Q02DX009 (ip), vehicle: Klucel (hydroxypropylcellulose) (HPC), higher = longer survival) was 96 % of control.

With `CC(CCc1cccc2ccccc12)(C(=O)O)C(=O)O` the T/C (endpoint: mean tumor weight, dose: 50.0 mg/kg/injection, schedule: Q01DX011 (ip), vehicle: acid diluted with saline, higher = larger tumour) was 72 % of control, the T/C (endpoint: mean tumor weight, dose: 63.0 mg/kg/injection, schedule: Q01DX011 (ip), vehicle: carboxymethylcellulose (CMC), higher = larger tumour) was 101 % of control and the T/C (endpoint: mean tumor weight, dose: 100.0 mg/kg/injection, schedule: Q01DX011 (ip), vehicle: acid diluted with saline, higher = larger tumour) was 85 % of control. The T/C (endpoint: mean tumor weight, dose: 200.0 mg/kg/injection, schedule: Q01DX011 (ip), vehicle: acid diluted with saline, higher = larger tumour) was 91 % of control and the T/C (endpoint: mean tumor weight, dose: 400.0 mg/kg/injection, schedule: Q01DX011 (ip), vehicle: acid diluted with saline, higher = larger tumour) was 59 % of control.

With `COC1N(C2CC(O)C(CO)O2)C(=O)NC(=O)C1(F)Br` (centres undefined) the T/C (endpoint: mean tumor weight, dose: 8.8 mg/kg/injection, schedule: Q01DX011 (ip), vehicle: saline, higher = larger tumour) was 45 % of control and 51 % of control and 55 % of control, the T/C (endpoint: mean tumor weight, dose: 13.3 mg/kg/injection, schedule: Q01DX011 (ip), vehicle: saline, higher = larger tumour) was 36 % of control and 56 % of control and 57 % of control and the T/C (endpoint: mean tumor weight, dose: 20.0 mg/kg/injection, schedule: Q01DX011 (ip), vehicle: saline, higher = larger tumour) was 13 % of control and 22 % of control. For the same molecule, the T/C (endpoint: median survival time, dose: 1.56 mg/kg/injection, schedule: Q01DX009 (ip), vehicle: saline, higher = longer survival) was 110 % of control and 117 % of control, the T/C (endpoint: median survival time, dose: 3.12 mg/kg/injection, schedule: Q01DX009 (ip), vehicle: saline, higher = longer survival) was 110 % of control and the T/C (endpoint: median survival time, dose: 3.13 mg/kg/injection, schedule: Q01DX009 (ip), vehicle: saline, higher = longer survival) was 113 % of control. For the same molecule, the T/C (endpoint: median survival time, dose: 6.25 mg/kg/injection, schedule: Q01DX009 (ip), vehicle: saline, higher = longer survival) was 109 % of control and 277 % of control and the T/C (endpoint: median survival time, dose: 12.5 mg/kg/injection, schedule: Q01DX009 (ip), vehicle: saline, higher = longer survival) was 279 % of control.

`CC(=O)OC(C)(C)/C=C/C(=O)[C@](C)(O)[C@H]1[C@H](O)C[C@@]2(C)[C@@H]3CC=C4[C@@H](C[C@H](O)C(=O)C4(C)C)[C@]3(C)C(=O)C[C@]12C` was tested, and the T/C (endpoint: mean tumor weight, dose: 0.16 mg/kg/injection, schedule: Q01DX011 (ip), vehicle: saline, higher = larger tumour) was 69 % of control, the T/C (endpoint: mean tumor weight, dose: 0.25 mg/kg/injection, schedule: Q01DX011 (ip), vehicle: saline, higher = larger tumour) was 53 % of control and the T/C (endpoint: mean tumor weight, dose: 0.38 mg/kg/injection, schedule: Q01DX011 (ip), vehicle: saline, higher = larger tumour) was 83 % of control. The T/C (endpoint: mean tumor weight, dose: 0.4 mg/kg/injection, schedule: Q01DX011 (ip), vehicle: carboxymethylcellulose (CMC), higher = larger tumour) was 67 % of control, the T/C (endpoint: mean tumor weight, dose: 0.4 mg/kg/injection, schedule: Q01DX011 (ip), vehicle: saline, higher = larger tumour) was 48 % of control and the T/C (endpoint: mean tumor weight, dose: 0.8 mg/kg/injection, schedule: Q01DX011 (ip), vehicle: saline, higher = larger tumour) was 42 % of control.

For `[CH3][Sn]([CH3])([CH3])[O]C(=O)CCl`, the T/C (endpoint: median survival time, dose: 0.19 mg/kg/injection, schedule: Q01DX009 (ip), vehicle: saline, higher = longer survival) was 100 % of control, the T/C (endpoint: median survival time, dose: 0.38 mg/kg/injection, schedule: Q01DX009 (ip), vehicle: saline, higher = longer survival) was 104 % of control and the T/C (endpoint: median survival time, dose: 0.75 mg/kg/injection, schedule: Q01DX009 (ip), vehicle: saline, higher = longer survival) was 88 % of control and 97 % of control.

For `CCCCCC[N+](CCCCCC)(CCCCCC)CCCCCC`, the T/C (endpoint: median survival time, dose: 0.75 mg/kg/injection, schedule: Q01DX009 (ip), vehicle: Klucel (hydroxypropylcellulose) (HPC), higher = longer survival) was 110 % of control, the T/C [1] was 91 % of control and the T/C [2] was 102 % of control.

In the case of `CC[CH2][Pb]([Cl])([CH2]CC)[CH2]CC`, the T/C (endpoint: median survival time, dose: 0.01 mg/kg/injection, schedule: Q01DX009 (ip), vehicle: DMSO, higher = longer survival) is reported as 101 % of control, the T/C (endpoint: median survival time, dose: 0.02 mg/kg/injection, schedule: Q01DX009 (ip), vehicle: DMSO, higher = longer survival) is reported as 93 % of control and the T/C (endpoint: median survival time, dose: 0.04 mg/kg/injection, schedule: Q01DX009 (ip), vehicle: DMSO, higher = longer survival) is reported as 98 % of control. The T/C (endpoint: median survival time, dose: 0.04 mg/kg/injection, schedule: Q01DX009 (ip), vehicle: Klucel (hydroxypropylcellulose) (HPC), higher = longer survival) was 94 % of control, the T/C (endpoint: median survival time, dose: 0.08 mg/kg/injection, schedule: Q01DX009 (ip), vehicle: DMSO, higher = longer survival) was 107 % of control and the T/C (endpoint: median survival time, dose: 0.09 mg/kg/injection, schedule: Q01DX009 (ip), vehicle: Klucel (hydroxypropylcellulose) (HPC), higher = longer survival) was 106 % of control. The T/C (endpoint: median survival time, dose: 0.18 mg/kg/injection, schedule: Q01DX009 (ip), vehicle: Klucel (hydroxypropylcellulose) (HPC), higher = longer survival) was 100 % of control, the T/C (endpoint: median survival time, dose: 0.37 mg/kg/injection, schedule: Q01DX009 (ip), vehicle: DMSO, higher = longer survival) was 108 % of control and the T/C (endpoint: median survival time, dose: 0.37 mg/kg/injection, schedule: Q01DX009 (ip), vehicle: Klucel (hydroxypropylcellulose) (HPC), higher = longer survival) was 104 % of control.

With `CC1OC(Oc2c(-c3ccc(O)c(O)c3)oc3cc(O)cc(O)c3c2=O)C(O)C(O)C1O` (centres undefined) the T/C (endpoint: mean tumor weight, dose: 62.5 mg/kg/injection, schedule: Q01DX011 (ip), vehicle: saline, higher = larger tumour) was 92 % of control, the T/C (endpoint: mean tumor weight, dose: 125.0 mg/kg/injection, schedule: Q01DX011 (ip), vehicle: saline, higher = larger tumour) was 93 % of control and the T/C (endpoint: mean tumor weight, dose: 250.0 mg/kg/injection, schedule: Q01DX011 (ip), vehicle: saline, higher = larger tumour) was 99 % of control. For the same molecule, the T/C (endpoint: mean tumor weight, dose: 500.0 mg/kg/injection, schedule: Q01DX011 (ip), vehicle: saline, higher = larger tumour) was 51 % of control.

For `Cc1cc(CCl)c(C)c(Br)c1C`, the T/C [1] was 108 % of control, the T/C [2] was 120 % of control and the T/C (endpoint: median survival time, dose: 6.0 mg/kg/injection, schedule: Q01DX009 (ip), vehicle: Klucel (hydroxypropylcellulose) (HPC), higher = longer survival) was 95 % of control.

With `COc1ccc(Nc2ccnc3cc(Cl)ccc23)cc1CN(CCCl)CCCl` the T/C (endpoint: mean tumor weight, dose: 0.06 mg/kg/injection, schedule: Q01DX011 (ip), vehicle: other, higher = larger tumour) was 113 % of control, the T/C (endpoint: mean tumor weight, dose: 0.12 mg/kg/injection, schedule: Q01DX011 (ip), vehicle: other, higher = larger tumour) was 94 % of control and the T/C (endpoint: mean tumor weight, dose: 0.25 mg/kg/injection, schedule: Q01DX011 (ip), vehicle: other, higher = larger tumour) was 85 % of control. For the same molecule, the T/C (endpoint: mean tumor weight, dose: 0.5 mg/kg/injection, schedule: Q01DX011 (ip), vehicle: other, higher = larger tumour) was 26 % of control and 44 % of control and the T/C (endpoint: mean tumor weight, dose: 1.0 mg/kg/injection, schedule: Q01DX011 (ip), vehicle: other, higher = larger tumour) was 32 % of control.

In the case of `c1ccc2cc3c(cc2c1)Cn1c-3nc2ccccc21`, the T/C (endpoint: mean tumor weight, dose: 50.0 mg/kg/injection, schedule: Q01DX011 (ip), vehicle: carboxymethylcellulose (CMC), higher = larger tumour) is reported as 64 % of control, the T/C (endpoint: mean tumor weight, dose: 55.0 mg/kg/injection, schedule: Q01DX011 (ip), vehicle: carboxymethylcellulose (CMC), higher = larger tumour) is reported as 33 % of control and 48 % of control and the T/C (endpoint: mean tumor weight, dose: 80.0 mg/kg/injection, schedule: Q01DX011 (ip), vehicle: carboxymethylcellulose (CMC), higher = larger tumour) is reported as 52 % of control. The T/C (endpoint: mean tumor weight, dose: 100.0 mg/kg/injection, schedule: Q01DX011 (ip), vehicle: carboxymethylcellulose (CMC), higher = larger tumour) was 23 % of control, the T/C (endpoint: mean tumor weight, dose: 120.0 mg/kg/injection, schedule: Q01DX011 (ip), vehicle: carboxymethylcellulose (CMC), higher = larger tumour) was 26 % of control and the T/C (endpoint: mean tumor weight, dose: 180.0 mg/kg/injection, schedule: Q01DX011 (ip), vehicle: carboxymethylcellulose (CMC), higher = larger tumour) was 34 % of control. The T/C (endpoint: mean tumor weight, dose: 200.0 mg/kg/injection, schedule: Q01DX011 (ip), vehicle: carboxymethylcellulose (CMC), higher = larger tumour) was 37 % of control and the T/C (endpoint: mean tumor weight, dose: 400.0 mg/kg/injection, schedule: Q01DX011 (ip), vehicle: carboxymethylcellulose (CMC), higher = larger tumour) was 38 % of control.

In the case of `O=NN(CCCl)C(=O)Nc1ccc(Cl)c(Cl)c1`, the T/C (endpoint: median survival time, dose: 8.0 mg/kg/injection, schedule: Q01DX009 (ip), vehicle: saline with Tween-80, higher = longer survival) is reported as 116 % of control and the T/C (endpoint: median survival time, dose: 16.0 mg/kg/injection, schedule: Q01DX009 (ip), vehicle: saline with Tween-80, higher = longer survival) is reported as 106 % of control.

In the case of `COC(CCC(C)C1OC23CC(OC(=O)CC(C(C)O)OC(=O)CC(O)(O2)C(C)CC3(C)C)C1C)c1cccc(O)c1` (centres undefined), the T/C (endpoint: median survival time, dose: 25.0 micrograms/kg/injection, schedule: Q01DX009 (ip), vehicle: other, higher = longer survival) is reported as 88 % of control, the T/C (endpoint: median survival time, dose: 50.0 micrograms/kg/injection, schedule: Q01DX009 (ip), vehicle: other, higher = longer survival) is reported as 101 % of control and the T/C (endpoint: median survival time, dose: 100.0 micrograms/kg/injection, schedule: Q01DX009 (ip), vehicle: other, higher = longer survival) is reported as 111 % of control.

For `CS(=O)(=O)OCCCCCCCCCOS(C)(=O)=O`, the T/C (endpoint: mean tumor weight, dose: 12.5 mg/kg/injection, schedule: Q01DX011 (ip), vehicle: carboxymethylcellulose (CMC), higher = larger tumour) was 104 % of control and 105 % of control and the T/C (endpoint: mean tumor weight, dose: 25.0 mg/kg/injection, schedule: Q01DX011 (ip), vehicle: carboxymethylcellulose (CMC), higher = larger tumour) was 68 % of control and 84 % of control.

In the case of `C/C=C(\C)c1cc(=O)c2c(C)cc3c(c2o1)C(=O)c1c(O)c(C2CC(C)(N(C)C)C(O)C(C)O2)cc(C2CC(N(C)C)C(O)C(C)O2)c1C3=O` (centres undefined), the T/C (endpoint: median survival time, dose: 0.5 mg/kg/injection, schedule: Q01DX009 (ip), vehicle: Klucel (hydroxypropylcellulose) (HPC), higher = longer survival) is reported as 100 % of control and the T/C (endpoint: median survival time, dose: 2.0 mg/kg/injection, schedule: Q01DX009 (ip), vehicle: Klucel (hydroxypropylcellulose) (HPC), higher = longer survival) is reported as 96 % of control.
